Experimental data as given in paper PMC6838110 (Nature Communications, 2019).

What was measured:
[1] = system: A549 xenografts; test: Xenograft efficacy study with fractionated IR; format: in vivo, mice
Protocol: (§1) Immunocompromised SCID (C.B-17/IcrHan®Hsd-Prkdc^scid) or Hsd:Athymic Nude-Foxn1^nu female mice (Envigo) were used for tumour implantation. […] When dosed twice daily, the time between the morning and evening doses was 8 h. Targeted irradiation of 2 Gy was delivered over 2 min daily over the first 5 days of treatment. Liposomal doxorubicin (Doxoves) was diluted in physiological saline and intravenously dosed at 2.5 or 5 mg kg^−1 once per week. Olaparib was formulated in 10% DMSO/30% Kleptose and orally dosed at 100 mg kg^−1 once daily. […] Statistical significance was evaluated using a one-tailed t-test. All in vivo studies complied with all relevant ethical regulations for animal testing and research, followed AstraZeneca’s global bioethics policy and received ethical approval from the AstraZeneca ethical committee. HBCx-17 PDX study was carried out at XenTech, France in accordance with French regulatory legislation concerning the protection of laboratory animals. CTG-703, CTG-0828 and CTG-0149 PDX studies were carried out at Champions Oncology, Inc., USA in accordance to the guidelines of the Institutional Animal Care and Use Committee (IACUC) of Champions Oncology and the USA regulatory legislation. CDX and OV2022 PDX studies were conducted in the UK in accordance with UK Home Office legislation, the Animal Scientific Procedures Act 1986 and the Home Office project licences 70/8839, 70/8894 and P0EC1FFDF. […]
(§2) Tumours were measured (length x width) by bilateral Vernier calliper measurements and tumour volume calculated using Mousetrap software. Mice were randomized into […]
(§3) treatment groups when mean tumour volume reached ~0.2 cm 3. AZD7648 was formulated in 0.5% hydroxypropyl methylcellulose (HPMC)/0.1% Tween80 (HPMC/T) and orally dosed (4–100 mg/kg). When dosed twice daily (bid), the time between the morning and evening doses was 8 hours. Targeted irradiation of 2 Gy was delivered over 2 minutes daily over the first 5 days of treatment. Liposomal doxorubicin (Doxoves) was diluted in physiological saline and intravenously dosed at 2.5 or 5 mg/kg once per week. Olaparib was formulated in 10% DMSO/30% Kleptose and orally dosed at 100 mg/kg once daily.
(§4) HPMC/T. Tumour growth inhibition from start of treatment was assessed by co mparison of the mean change in tumour volume for the control and treated groups, using the Mousetrap application and represented as tumour growth inhibition (TGI). Statistical significance was evaluated using a one-tailed t-test. […]
(§5) was prepared using an appropriate dilution factor and compared against an 11-point standard calibration curve (1–10,000 nM) prepared in DMSO and spiked into bl ank plasma. […] Supernatant (50 µL) was then diluted in 300 µL water and analysed with ultra-performance liquid chromatography–tandem mass […]

[2] = system: NCI-H1299 xenografts; test: Xenograft efficacy study with fractionated IR; format: in vivo, mice
Protocol: as §1, §2, §3, §4, §5

In the case of `Cc1cc2ncnn2cc1Nc1ncc2c(n1)n(C1CCOCC1)c(=O)n2C` [AZD7648], the “tumour growth inhibition (TGI)” value ([1]; AZD7648 100 mg kg−1 qd oral + IR 2 Gy for five consecutive days) is reported as 90%, the “tumour response to single-agent treatment” value ([1]; AZD7648 100 mg kg−1 qd oral, single agent) is reported as “insensitive” and the tumour regression ([2]; AZD7648 50 mg kg−1 qd × 21 days + IR 2 Gy qd × 5 days) is reported as 55%. The tumour regression ([2]; AZD7648 100 mg kg−1 qd × 21 days + IR 2 Gy qd × 5 days) was 85%.
